Reference: patent publication US10179790B2 (THOMAS HELLEDAYS STIFTELSE FOR MEDICINSK FORSKNING, priority 2014, dated 2019)

Key:
MTH1 = MTH1 (Homo sapiens, UniProt P36639); experiment: MTH1 enzymatic assay and IC50 value determination (malachite green, 96- and 384-well format); format: biochemical; details: hydrolysis of dGTP (100 μM), MTH1 6 nM, pyrophosphatase-coupled malachite green, 15 minutes at 22° C.
How it was run: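 MTH1 (6 nM) hydrolysed dGTP (100 μM) for 15 min at 22 °C in Tris-acetate buffer with Mg2+, DTT, Tween 20 and excess pyrophosphatase, 1% DMSO. Pi detected with malachite green at 630 nm. IC50 from nonlinear 4-parameter fit of 11–12-point dilution series.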

cancer cell = experiment: Cell viability assay (resazurin); format: cell-based; details: 72 h; 3 days with compound, resazurin fluorescence; cell line not named
Description: The utility of the compounds of the present invention can be illustrated, for example, by their activity in vitro in the cancer cell clonogenic and/or viability assay described below. The link between activity in tumor cell clonogenic assay and anti-tumor activity in the clinical setting has been well established in the art (e.g. see ref Silverstini et al Stem Cells 1993, 11(6), 258-35).
Cells are seeded into 96 well plates (1000-3000 cells/well) in DMEM GlutaMAX™ or other suitable media dependent on cell line and incubated overnight in 5% CO2, 37° C. Thereafter cells are treated with compound or vehicle and left in incubator for 3 days until staining with resazurin. Cells are incubated in resazurin (diluted in suitable media) at 37° C. for 2 hours before measuring the fluorescence (Ex544/Em590).
The compounds to be tested are nano-dispensed in 11 concentrations, directly in 384-well cell plates, with a final DMSO concentration <1%. Cells are seeded in cell plates, pre-dispensed with compounds, 50 μl/well (600-1200 cells/well). After 3 days culture in 5% CO2, 37° C., resazurin diluted in PBS is added, 10 μl/well, and cells are incubated 3 hours before measuring fluorescence (Ex544/Em590).

| Compound | IC50 (MTH1) | IC50 (cancer cell) |
| --- | --- | --- |
| Cc1nc2ccc(NCCNc3cc(-c4cccc(C)c4C)nc(N)n3)cc2s1 [Example 36, 6-(2,3-dimethylphenyl)-4-N-{2-[(2-methyl-1,3-benzothiazol-6-yl)amino]ethyl}pyrimidine-2,4-diamine] | < 200 nM | < 500 nM |
| Nc1nc(NCCNc2ccc3c(c2)NC(=O)CO3)cc(-c2cccc(Cl)c2Cl)n1 [Example 38, 6-[(2-{[2-amino-6-(2,3-dichlorophenyl)pyrimidin-4-yl]amino}ethyl)amino]-3,4-dihydro-2H-1,4-benzoxazin-3-one] | < 200 nM | < 500 nM |
| Cc1nc2ccc(NCCNc3cc(-c4cccc(Cl)c4Cl)nc(N)n3)cc2s1 [Example 39, 6-(2,3-dichlorophenyl)-4-N-{2-[(2-methyl-1,3-benzothiazol-6-yl)amino]ethyl}pyrimidine-2,4-diamine] | < 200 nM | < 500 nM |
| Cc1cccc(-c2cc(NCCNc3cccc(S(C)(=O)=O)c3)nc(N)n2)c1C [Example 40, 6-(2,3-dimethylphenyl)-4-N-{2-[(3-methanesulfonylphenyl)amino]ethyl}pyrimidine-2,4-diamine] | < 200 nM | < 500 nM |
| Cc1cccc(-c2cc(NCCNc3ccc(S(N)(=O)=O)cc3F)nc(N)n2)c1C [Example 42, 4-[(2-{[2-amino-6-(2,3-dimethylphenyl)pyrimidin-4-yl]amino}ethyl)amino]-3-fluorobenzene-1-sulfonamide] | < 200 nM | < 500 nM |
| Cc1c(Cl)cccc1-c1cc(NCCc2ccc(C(N)=O)cc2)nc(N)n1 [Example 43, 4-(2-{[2-amino-6-(3-chloro-2-methylphenyl)pyrimidin-4-yl]amino}ethyl)benzamide] | < 200 nM | < 500 nM |
| Cc1cccc(-c2cc(NCCc3ccc(C(N)=O)cc3)nc(N)n2)c1C [Example 44, 4-(2-{[2-amino-6-(2,3-dimethylphenyl)pyrimidin-4-yl]amino}ethyl)benzamide] | < 200 nM | < 500 nM |
| CC(=O)Nc1cccc(CCNc2cc(-c3cccc(Cl)c3C)nc(N)n2)c1 [Example 46, N-[3-(2-{[2-amino-6-(3-chloro-2-methylphenyl)pyrimidin-4-yl]amino}ethyl)phenyl]acetamide] | < 200 nM | < 500 nM |
| CCOC(=O)Nc1cccc(CCNc2cc(-c3cccc(Cl)c3C)nc(N)n2)c1 [Example 47, ethyl N-[3-(2-{[2-amino-6-(3-chloro-2-methylphenyl)pyrimidin-4-yl]amino}ethyl)phenyl]carbamate] | < 200 nM | < 500 nM |
| Cc1c(Cl)cccc1-c1cc(NCCc2ccc3c(c2)NC(=O)CO3)nc(N)n1 [Example 48, 6-(2-{[2-amino-6-(3-chloro-2-methylphenyl)pyrimidin-4-yl]amino}ethyl)-3,4-dihydro-2H-1,4-benzoxazin-3-one] | < 200 nM | < 500 nM |
| COC(=O)c1cnc(NCCNc2cc(-c3cccc(C)c3C)nc(N)n2)cn1 [Example 49, methyl 5-[(2-{[2-amino-6-(2,3-dimethylphenyl)pyrimidin-4-yl]amino}ethyl)amino]pyrazine-2-carboxylate] | < 200 nM | < 500 nM |
| Cc1c(Cl)cccc1-c1cc(NCCc2cccc(S(C)(=O)=O)c2)nc(N)n1 [Example 52, 6-(3-chloro-2-methylphenyl)-4-N-[2-(3-methanesulfonylphenyl)ethyl]pyrimidine-2,4-diamine] | < 200 nM | < 500 nM |
| Cc1c(Cl)cccc1-c1cc(NCCc2cccc(S(N)(=O)=O)c2)nc(N)n1 [Example 53, 3-(2-{[2-amino-6-(3-chloro-2-methylphenyl)pyrimidin-4-yl]amino}ethyl)benzene-1-sulfonamide] | < 200 nM | < 500 nM |
| Nc1nc(NCCc2cccc(S(N)(=O)=O)c2)cc(-c2cccc(Cl)c2Cl)n1 [Example 54, 3-(2-{[2-amino-6-(2,3-dichlorophenyl)pyrimidin-4-yl]amino}ethyl)benzene-1-sulfonamide] | < 200 nM | < 500 nM |
| Cc1c(Cl)cccc1-c1cc(NCCOc2ccc(C(N)=O)cn2)nc(N)n1 [Example 55, 6-(2-{[2-amino-6-(3-chloro-2-methylphenyl)pyrimidin-4-yl]amino}ethoxy)pyridine-3-carboxamide] | < 200 nM | < 500 nM |
| Cc1c(Cl)cccc1-c1cc(NCCNc2ccc3c(c2)NC(=O)C(C)(C)O3)nc(N)n1 [Example 56, 6-[(2-{[2-amino-6-(3-chloro-2-methylphenyl)pyrimidin-4-yl]amino}ethyl)amino]-2,2-dimethyl-3,4-dihydro-2H-1,4-benzoxazin-3-one] | < 200 nM | < 500 nM |

| Compound | IC50 (MTH1) | IC50 (cancer cell) |
| --- | --- | --- |
| Cc1c(Cl)cccc1-c1cc(NCCOc2nccc(C(N)=O)n2)nc(N)n1 [Example 57, 2-(2-{[2-amino-6-(3-chloro-2-methylphenyl)pyrimidin-4-yl]amino}ethoxy)pyrimidine-4-carboxamide] | < 200 nM | < 500 nM |
| Cc1c(Cl)cccc1-c1cc(NCCc2ccc(NC(=O)C(C)(C)C)cc2)nc(N)n1 [Example 59, N-[4-(2-{[2-amino-6-(3-chloro-2-methylphenyl)pyrimidin-4-yl]amino}ethyl)phenyl]-2,2-dimethylpropanamide] | < 200 nM | < 500 nM |
| Cc1c(Cl)cccc1-c1cc(NCCc2ccc(NS(=O)(=O)CC(F)(F)F)cc2)nc(N)n1 [Example 60, N-[4-(2-{[2-amino-6-(3-chloro-2-methylphenyl)pyrimidin-4-yl]amino}ethyl)phenyl]-2,2,2-trifluoroethane-1-sulfonamide] | < 200 nM | < 500 nM |
| Cc1c(Cl)cccc1-c1cc(NCCc2ccc(NC(=O)NC(C)C)cc2)nc(N)n1 [Example 61, 1-[4-(2-{[2-amino-6-(3-chloro-2-methylphenyl)pyrimidin-4-yl]amino}ethyl)phenyl]-3-(propan-2-yl)urea] | < 200 nM | < 500 nM |
| Cc1c(Cl)cccc1-c1cc(NCCc2ccc(NC(=O)OC(C)(C)C)cc2)nc(N)n1 [Example 62, tert-butyl N-[4-(2-{[2-amino-6-(3-chloro-2-methylphenyl)pyrimidin-4-yl]amino}ethyl)phenyl]carbamate] | < 200 nM | < 500 nM |
| CCS(=O)(=O)Nc1ccc(CCNc2cc(-c3cccc(Cl)c3C)nc(N)n2)cc1 [Example 64, N-[4-(2-{[2-amino-6-(3-chloro-2-methylphenyl)pyrimidin-4-yl]amino}ethyl)phenyl]ethane-1-sulfonamide] | < 200 nM | < 500 nM |
| Cc1cc(C)c(-c2cc(NCCc3ccc(S(N)(=O)=O)cc3)nc(N)n2)cc1C [Example 65, 4-(2-{[2-amino-6-(2,4,5-trimethylphenyl)pyrimidin-4-yl]amino}ethyl)benzene-1-sulfonamide] | < 200 nM | < 500 nM |
| COc1cc(C)c(-c2cc(NCCc3ccc(S(N)(=O)=O)cc3)nc(N)n2)cc1C [Example 66, 4-(2-{[2-amino-6-(4-methoxy-2,5-dimethylphenyl)pyrimidin-4-yl]amino}ethyl)benzene-1-sulfonamide] | < 200 nM | < 500 nM |
| Cc1ccc(C)c(-c2cc(NCCc3ccc(S(N)(=O)=O)cc3)nc(N)n2)c1 [Example 70, 4-(2-{[2-amino-6-(2,5-dimethylphenyl)pyrimidin-4-yl]amino}ethyl)benzene-1-sulfonamide] | < 200 nM | < 500 nM |
| Cc1c(-c2cc(NCCc3ccc(S(N)(=O)=O)cc3)nc(N)n2)cc(Cl)c(Cl)c1Cl [Example 72, 4-(2-{[2-amino-6-(3,4,5-trichloro-2-methylphenyl)pyrimidin-4-yl]amino}ethyl)benzene-1-sulfonamide] | < 200 nM | < 500 nM |
| Cc1cc(Cl)cc(-c2cc(NCCc3ccc(S(N)(=O)=O)cc3)nc(N)n2)c1F [Example 73, 4-(2-{[2-amino-6-(5-chloro-2-fluoro-3-methylphenyl)pyrimidin-4-yl]amino}ethyl)benzene-1-sulfonamide] | < 200 nM | < 500 nM |
| Cc1c(Cl)cc(Cl)cc1-c1cc(NCCc2ccc(S(N)(=O)=O)cc2)nc(N)n1 [Example 74, 4-(2-{[2-amino-6-(3,5-dichloro-2-methylphenyl)pyrimidin-4-yl]amino}ethyl)benzene-1-sulfonamide] | < 200 nM | < 500 nM |
| Cc1c(-c2cc(NCCc3ccc(C(N)=O)cc3)nc(N)n2)cc(Cl)c(Cl)c1Cl [Example 75, 4-(2-{[2-amino-6-(3,4,5-trichloro-2-methylphenyl)pyrimidin-4-yl]amino}ethyl)benzamide] | < 200 nM | < 500 nM |
| Cc1c(Cl)cc(Cl)cc1-c1cc(NCCc2ccc(C(N)=O)cc2)nc(N)n1 [Example 76, 4-(2-{[2-amino-6-(3,5-dichloro-2-methylphenyl)pyrimidin-4-yl]amino}ethyl)benzamide] | < 200 nM | < 500 nM |
| Cc1c(F)ccc(-c2cc(NCCc3ccc(C(N)=O)cc3)nc(N)n2)c1C [Example 77, 4-(2-{[2-amino-6-(4-fluoro-2,3-dimethylphenyl)pyrimidin-4-yl]amino}ethyl)benzamide] | < 200 nM | < 500 nM |
